Experimental data as given in publication PMC4699737, “TrpA1 Regulates Defecation of Food-Borne Pathogens under the Control of the Duox Pathway” (PLoS Genetics, 2016).

Experiments:
Test in all cases: two-electrode voltage clamp, Xenopus oocytes, Hill fit
Assay type in all cases: cell-based
Conditions in all cases: agonist (activation); -60 mV, pH 7.6; currents normalized to 100 ppm NaOCl, steady state
hsTRPA1 = molecular target: T1, hsTRPA1 (Homo sapiens, UniProt O75762)
T1 construct: gene TRPA1; full-length, cRNA injected in Xenopus laevis oocytes

TRPA1(B)10a = molecular target: T2, TRPA1(B)10a (Drosophila melanogaster, UniProt Q7Z020)
T2 construct: full-length splice isoform, TrpA1 cRNA injected in Xenopus laevis oocytes
T2 sequence (Q7Z020 1-1197): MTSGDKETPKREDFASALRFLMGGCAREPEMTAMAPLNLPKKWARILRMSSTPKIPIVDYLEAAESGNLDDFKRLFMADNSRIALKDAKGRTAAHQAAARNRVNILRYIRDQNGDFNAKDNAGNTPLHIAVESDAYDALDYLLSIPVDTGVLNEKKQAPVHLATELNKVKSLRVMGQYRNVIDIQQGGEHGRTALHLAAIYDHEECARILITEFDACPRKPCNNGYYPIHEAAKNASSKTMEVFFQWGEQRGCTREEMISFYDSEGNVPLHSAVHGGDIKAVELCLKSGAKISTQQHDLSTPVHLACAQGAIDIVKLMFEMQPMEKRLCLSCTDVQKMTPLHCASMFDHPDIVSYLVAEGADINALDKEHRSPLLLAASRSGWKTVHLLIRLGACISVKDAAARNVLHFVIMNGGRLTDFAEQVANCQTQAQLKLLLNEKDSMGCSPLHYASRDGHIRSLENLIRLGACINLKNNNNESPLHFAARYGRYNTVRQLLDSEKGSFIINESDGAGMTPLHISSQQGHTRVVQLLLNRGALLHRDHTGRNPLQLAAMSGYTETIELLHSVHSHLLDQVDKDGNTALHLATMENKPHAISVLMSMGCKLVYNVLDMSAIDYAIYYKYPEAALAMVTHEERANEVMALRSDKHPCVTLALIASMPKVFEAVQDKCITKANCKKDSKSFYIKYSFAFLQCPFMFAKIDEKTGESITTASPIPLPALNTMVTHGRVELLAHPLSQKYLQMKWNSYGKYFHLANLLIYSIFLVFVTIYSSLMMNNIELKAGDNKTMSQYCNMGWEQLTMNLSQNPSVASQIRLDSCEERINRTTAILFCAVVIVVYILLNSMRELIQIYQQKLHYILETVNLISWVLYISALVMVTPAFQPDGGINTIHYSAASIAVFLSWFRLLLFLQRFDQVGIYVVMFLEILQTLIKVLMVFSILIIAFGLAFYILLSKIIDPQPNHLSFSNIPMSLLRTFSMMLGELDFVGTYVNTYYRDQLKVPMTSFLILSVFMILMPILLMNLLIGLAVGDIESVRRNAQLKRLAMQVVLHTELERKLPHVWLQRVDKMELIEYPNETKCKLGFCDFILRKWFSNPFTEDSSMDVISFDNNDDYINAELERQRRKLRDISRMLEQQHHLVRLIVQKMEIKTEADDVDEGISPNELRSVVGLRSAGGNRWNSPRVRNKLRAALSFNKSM

TRPA1(A)10b = molecular target: T3, TRPA1(A)10b (Drosophila melanogaster, UniProt H0USS9)
T3 construct: full-length splice isoform, TrpA1 cRNA injected in Xenopus laevis oocytes
T3 sequence (H0USS9 1-1231): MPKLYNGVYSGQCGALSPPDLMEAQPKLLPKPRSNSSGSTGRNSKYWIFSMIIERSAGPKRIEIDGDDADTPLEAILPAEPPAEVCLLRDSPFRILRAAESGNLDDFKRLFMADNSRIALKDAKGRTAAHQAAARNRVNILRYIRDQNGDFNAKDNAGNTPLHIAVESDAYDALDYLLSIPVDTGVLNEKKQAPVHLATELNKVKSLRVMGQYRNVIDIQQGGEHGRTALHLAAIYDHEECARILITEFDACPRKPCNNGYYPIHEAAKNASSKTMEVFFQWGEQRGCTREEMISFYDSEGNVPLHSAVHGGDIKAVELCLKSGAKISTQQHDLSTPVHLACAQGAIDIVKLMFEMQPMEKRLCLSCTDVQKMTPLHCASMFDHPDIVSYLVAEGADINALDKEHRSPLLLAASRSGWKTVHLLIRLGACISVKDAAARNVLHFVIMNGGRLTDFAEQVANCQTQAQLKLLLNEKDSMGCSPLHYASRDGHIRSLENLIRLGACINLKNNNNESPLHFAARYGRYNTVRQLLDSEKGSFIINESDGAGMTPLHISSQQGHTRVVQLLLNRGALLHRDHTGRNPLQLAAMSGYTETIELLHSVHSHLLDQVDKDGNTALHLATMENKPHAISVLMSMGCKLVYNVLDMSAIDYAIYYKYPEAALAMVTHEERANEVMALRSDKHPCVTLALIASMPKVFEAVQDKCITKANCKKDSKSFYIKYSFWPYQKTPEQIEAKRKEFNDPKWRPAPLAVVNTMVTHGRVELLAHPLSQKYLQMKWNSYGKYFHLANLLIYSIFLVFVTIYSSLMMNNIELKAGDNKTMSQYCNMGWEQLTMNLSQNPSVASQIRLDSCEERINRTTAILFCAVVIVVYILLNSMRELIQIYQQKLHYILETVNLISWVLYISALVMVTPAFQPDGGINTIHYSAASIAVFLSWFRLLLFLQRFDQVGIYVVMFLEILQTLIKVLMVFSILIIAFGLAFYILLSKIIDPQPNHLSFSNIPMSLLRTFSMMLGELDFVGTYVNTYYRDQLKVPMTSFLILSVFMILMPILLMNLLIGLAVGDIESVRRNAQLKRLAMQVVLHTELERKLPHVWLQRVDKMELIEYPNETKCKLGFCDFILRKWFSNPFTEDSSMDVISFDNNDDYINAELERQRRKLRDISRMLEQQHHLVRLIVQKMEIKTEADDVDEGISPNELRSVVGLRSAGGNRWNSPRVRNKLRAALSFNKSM
Description: two-electrode voltage clamp, Xenopus oocytes, Hill fit on TRPA1(A)10b | The data were fitted to Hill equation to determine EC50s

TRPA1(A)10a = molecular target: T4, TRPA1(A)10a (Drosophila melanogaster, UniProt G8IQ59)
T4 construct: full-length splice isoform, TrpA1 cRNA injected in Xenopus laevis oocytes
T4 sequence (G8IQ59 1-1232): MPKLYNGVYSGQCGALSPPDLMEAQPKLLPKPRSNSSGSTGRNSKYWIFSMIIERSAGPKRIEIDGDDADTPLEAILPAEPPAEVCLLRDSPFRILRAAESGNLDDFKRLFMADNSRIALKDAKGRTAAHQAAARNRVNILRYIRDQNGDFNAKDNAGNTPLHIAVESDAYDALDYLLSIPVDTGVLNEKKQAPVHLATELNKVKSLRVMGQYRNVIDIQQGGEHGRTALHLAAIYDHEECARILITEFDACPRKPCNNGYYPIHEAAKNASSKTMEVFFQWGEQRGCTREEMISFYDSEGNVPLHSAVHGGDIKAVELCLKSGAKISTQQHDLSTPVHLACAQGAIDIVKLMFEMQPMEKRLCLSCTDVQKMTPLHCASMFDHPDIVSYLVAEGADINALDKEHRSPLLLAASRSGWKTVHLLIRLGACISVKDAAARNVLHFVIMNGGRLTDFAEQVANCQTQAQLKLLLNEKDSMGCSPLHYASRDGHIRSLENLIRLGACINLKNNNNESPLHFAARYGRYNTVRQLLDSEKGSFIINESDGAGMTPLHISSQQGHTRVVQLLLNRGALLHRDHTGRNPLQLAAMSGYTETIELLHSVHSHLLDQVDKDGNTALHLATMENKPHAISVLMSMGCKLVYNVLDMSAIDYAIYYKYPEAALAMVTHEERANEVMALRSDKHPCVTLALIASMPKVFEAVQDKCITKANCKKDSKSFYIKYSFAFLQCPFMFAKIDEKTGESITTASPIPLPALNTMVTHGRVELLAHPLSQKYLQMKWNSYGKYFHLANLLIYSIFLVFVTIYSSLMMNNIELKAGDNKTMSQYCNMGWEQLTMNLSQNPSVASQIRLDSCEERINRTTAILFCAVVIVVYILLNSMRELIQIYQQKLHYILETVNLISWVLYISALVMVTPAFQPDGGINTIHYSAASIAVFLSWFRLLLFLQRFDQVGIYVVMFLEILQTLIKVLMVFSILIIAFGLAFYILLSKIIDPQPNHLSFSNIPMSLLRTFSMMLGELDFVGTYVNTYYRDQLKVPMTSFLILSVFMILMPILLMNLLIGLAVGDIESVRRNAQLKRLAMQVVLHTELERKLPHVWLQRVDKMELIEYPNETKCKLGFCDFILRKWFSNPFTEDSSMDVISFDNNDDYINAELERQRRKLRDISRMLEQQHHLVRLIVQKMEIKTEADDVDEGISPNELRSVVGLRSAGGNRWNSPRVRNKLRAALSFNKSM

T1 sequence (O75762 whole entry): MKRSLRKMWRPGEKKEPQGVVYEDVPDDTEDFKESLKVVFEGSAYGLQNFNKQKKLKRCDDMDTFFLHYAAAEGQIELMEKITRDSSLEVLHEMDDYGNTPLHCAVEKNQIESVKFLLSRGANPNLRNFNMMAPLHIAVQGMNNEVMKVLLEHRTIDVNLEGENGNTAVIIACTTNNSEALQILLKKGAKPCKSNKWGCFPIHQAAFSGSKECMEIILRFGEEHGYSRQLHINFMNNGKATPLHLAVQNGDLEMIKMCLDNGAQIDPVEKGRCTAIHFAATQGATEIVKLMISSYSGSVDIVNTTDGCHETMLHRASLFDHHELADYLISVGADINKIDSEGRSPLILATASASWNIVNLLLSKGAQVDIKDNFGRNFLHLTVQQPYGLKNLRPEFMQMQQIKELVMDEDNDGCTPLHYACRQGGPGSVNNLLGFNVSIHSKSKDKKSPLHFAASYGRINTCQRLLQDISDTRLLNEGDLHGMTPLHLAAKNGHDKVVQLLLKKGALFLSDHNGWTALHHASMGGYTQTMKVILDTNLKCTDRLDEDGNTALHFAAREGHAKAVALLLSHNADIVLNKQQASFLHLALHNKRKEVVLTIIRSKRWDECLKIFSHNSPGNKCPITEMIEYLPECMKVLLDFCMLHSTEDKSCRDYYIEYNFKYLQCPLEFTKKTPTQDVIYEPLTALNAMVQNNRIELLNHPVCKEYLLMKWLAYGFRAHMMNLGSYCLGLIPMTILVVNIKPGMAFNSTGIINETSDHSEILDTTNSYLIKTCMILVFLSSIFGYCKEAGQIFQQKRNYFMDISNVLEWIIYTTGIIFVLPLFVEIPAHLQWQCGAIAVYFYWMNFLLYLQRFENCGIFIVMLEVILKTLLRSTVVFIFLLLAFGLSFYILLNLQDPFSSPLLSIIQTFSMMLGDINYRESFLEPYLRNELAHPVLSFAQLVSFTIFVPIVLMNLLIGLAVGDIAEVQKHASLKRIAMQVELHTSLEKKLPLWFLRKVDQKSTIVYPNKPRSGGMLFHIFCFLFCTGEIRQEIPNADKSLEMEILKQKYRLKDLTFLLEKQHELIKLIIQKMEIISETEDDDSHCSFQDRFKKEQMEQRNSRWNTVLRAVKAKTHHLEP

OCl [NaOCl]
EC50 (hsTRPA1): 21.1±3.6 ppm | EC50 (TRPA1(B)10a): 13.2±1.0 ppm | EC50 (TRPA1(A)10b): 1.7±0.7 ppm | EC50 (TRPA1(A)10a): 5.7±0.6 ppm
